The values that follow are results of earlier work, collected in US7385060B2, “Method for producing salts of tolperisone” (Sanochemia Pharmazeutika AG, priority 2002, dated 2008).

One data set concerns RAT. Particulars: oral.
Another data set has as its system HMN. Particulars: inhalation, human, 30 m.

Turning to `C=O` [formaldehyde], in the data set with RAT, the “ORL-RAT LD50” value was 100 mg/kg. Moreover, the “IHL-TCLO HMN” value in the data set with HMN is recorded as 17 mg/m^3/30 m.
